Measurements taken from patent US20110020312A1, “METHODS FOR TREATMENT OF METABOLIC DISORDERS USING EPIMETABOLIC SHIFTERS, MULTIDIMENSIONAL INTRACELLULAR MOLECULES, OR ENVIRONMENTAL INFLUENCERS” (priority 2009, published 2011).

Tests used:
[1] = cited from earlier work
[2] = test system: HK-2 cells; assay: Diabetes PCR array in cell model for diabetes (22 mM glucose); type: cell-based, human
Protocol: The HK-2 and HASMC cells are normally maintained in culture at 5.5 mM glucose, which is a concentration that corresponds to a range considered normal in human blood. However, in order to simulate a diabetic environment, both cell lines were subsequently maintained at 22 mM glucose, which corresponds to the range observed in human blood associated with chronic hyperglycemia. The cells were subsequently allowed to propagate over 3 passages so that the intracellular regulation processes were functionally adapted to mimic a diabetic state. The choice of cell line was based on the physiologic influence of diabetes on renal dysfunction and progression to end-stage renal disease (ESRD) in addition to the progressive pathophysiology of a compromised cardiovascular function.
The Diabetes PCR array (SABiosciences) offers a screen for 84 genes simultaneously.
A stringent analysis of the Real time PCR data of the HK-2 samples on the Diabetes Arrays (Cat # PAHS-023E, SABiosciences Frederick Md.) was made to exclude all results where gene regulation was not at least a two-fold regulation over HK-2 normal untreated cells with a p value of less than 0.05.

[3] = test system: SkBr-3 cells; assay: Real-time PCR Apoptosis Array; type: cell-based, human
Protocol: Changes in mRNA levels were evaluated using real-time PCR quantification to assess mRNA levels in pre-selected subsets containing […] pathway specific targets.
For the interpretation of mRNA results, the genes that were altered in their mRNA transcription by a two-fold level were identified and evaluated. The level of gene transcription to produce mRNA only provides a rough estimate of potential changes in the level of the expressed protein. The skilled artisan will appreciate that each mRNA may have different rates at which it is degraded or its translation inefficiently, thus resulting in differing amounts of protein.
The assay method of RT-PCR was utilized to provide a measure of mRNA level changes to a total of 84 apoptotic pathway related proteins.

[4] = test system: Caspase 3; assay: Western blot, Caspase 3 levels; type: cell-based, human
Protocol: The blots were stripped by incubating for 30 minutes with methanol, followed by two 10 minute washes with TBS-T, then 30 minutes of incubation with Stripping buffer at 50 deg C., and followed by two washes with 100 ml or more of TBS-T for 30′ each. The 2 blots were scanned in laser scanner to check for complete stripping. The blots were activated with methanol for 5 seconds, washed with water for 5 minutes, and TBST for 15 minutes. The blots were blocked for 1 hour with 5% blocking reagent in TBS-T at room temperature and then washed 3 times with TBS-T (1×-15′; 2×5′ each) and probed with the antibody for Caspase 3 in 5% BSA (Santacruz Biotechnology # sc7272) at 1:200 dilutions) overnight at 4 deg C. with shaking. After the overnight incubation with primary antibody for Caspase 3, the membranes were washed 3 times with TBS-T (1×-15′; 2×5′ each) and probed with the secondary antibody (antimouse; 1:10,000 dilution) for 1 h on the orbital tilting shaker at room temperature. After 1 h of incubation with secondary antibodies, the blots were washed 3 times with TBS-T (1×-15′; 2×5′ each) and then incubated with ECF reagent for 5 minutes and then each blot scanned with 5100 Fuji Laser scanner at 25 uM resolution, 16 bit, green laser, at 400V and at 500 V.
The samples were processed and the gels were run, transferred, stained and scanned essentially as described above.
The levels of Caspase 3 and actin were determined by probing the blots successively with primary antibodies for Caspase 3 and actin, essentially as described above.
The Actin blots were stripped by incubating for 30 minutes with methanol, followed by two 10 minute washes with TBS-T, then 30 minutes of incubation with Stripping buffer at 50 deg C., and followed by two washes with 100 ml or more of TBS-T for 30′ each. The blots were scanned in laser scanner to check for complete stripping. The blots were activated with methanol for 5 seconds, washed with water for 5 minutes, and TBST for 15 minutes. The blots were blocked for 1 hour with 5% blocking reagent in TBS-T at room temperature and then washed 3 times with TBS-T (1×-15′; 2×5′ each) and probed with the primary antibody for Hif 1 alpha, Caspase 3 or PDHB in 5% BSA (at 1:200 by incubation overnight at 4 deg C. with gentle shaking. The primary antibody for Hif 1 alpha (Abcam ab2185; antirabbit) was at 1:500 dilution in 5% BSA. The primary antibody for Caspase 3 (Santacruz sc7272; antirabbit) was at 1:200 dilution in 5% BSA. The primary antibody for Pyruvate Dehydrogenase beta (PDHB) (Novus Biologicals H00005162-M03; antimouse) was at 1:500 dilution in 5% BSA. After incubation with primary antibodies, the membranes were washed 3 times with TBS-T (1×-15′; 2×5′ each) and probed with the secondary antibody (PDHB antimouse; Hif 1a and Caspase 3 antirabbit; 1:10,000 dilution) for 1 h at room temperature. After 1 h of incubation with secondary antibodies, the blots were washed 3 times with TBS-T (1×-15′; 2×5′ each) and then incubated with ECF reagent for 5 minutes and then each blot scanned with 5100 Fuji Laser scanner at 25 uM resolution, 16 bit, green laser, at 400V and at 500 V.
The Actin blots were stripped by incubating for 30 minutes with methanol, followed by two 10 minute washes with TBS-T, then 30 minutes of incubation with Stripping buffer at 50 deg C., and followed by two washes with 100 ml or more of TBS-T for 30′ each. The blots were activated with methanol for 5 seconds, washed with water for 5 minutes, and TBST for 15 minutes. The blots were blocked for 1 hour with 5% blocking reagent in TBS-T at room temperature and then washed 3 times with TBS-T (1×-15′; 2×5′ each) and probed with the primary antibody for Caspase 3 or MMP-6 in 5% BSA by incubation overnight at 4 deg C. with gentle shaking. The primary antibody for Caspase 3 (Abcam ab44976-100; antirabbit) was at 1:500 dilution in 5% BSA. The primary antibody for MMP-6 (Santacruz scMM0029-ZB5; antimouse) was at 1:100 dilution in 5% BSA. […]

[5] = test system: melanoma cell; assay: Bcl2 level after CoQ-10 in the presence of VEGF; type: cell-based

COC1=C(OC)C(=O)C(C/C=C(\C)CC/C=C(\C)CC/C=C(\C)CC/C=C(\C)CC/C=C(\C)CC/C=C(\C)CC/C=C(\C)CC/C=C(\C)CC/C=C(\C)CCC=C(C)C)=C(C)C1=O [Q10, Coenzyme Q10]
solubility in water [1]: insoluble in water | CEACAM1 RNA transcript ([2]; HK2(H) cells, particularly with 100 μM Coenzyme Q10): highly upregulated | insulin receptor (INSR) expression ([2]; diabetic HK-2 cells): altered | mRNA's being affected (Apoptosis array) ([3]; Q10 (24 hr)): Bcl2, Bcl2L1, Bcl2L11, Birc6, Bax, Xiap, Hprt1, Apaf1, Ab11, Braf | Bcl-xl mRNA level ([3]; one of the highest): significant up-regulation | Caspase 3 Normalized Volume ([4]; HASMC, 5g48-50): 766 | Caspase 3 Normalized Volume ([4]; HASMC, 5g48-100): 669 | Caspase 3 Normalized Volume ([4]; HASMC, 22G24-50): 835 | Caspase 3 Normalized Volume ([4]; HASMC, 22G24-100): 865 | Caspase 3 Normalized Volume ([4]; HASMC, 22G48-50): 639 | Caspase 3 Normalized Volume ([4]; HASMC, 22G48-100): 624 | Caspase 3 Normalized Volume as a % ([4]; HepG2, 5g24-50, 2 Experiments): 108% | Caspase 3 Normalized Volume as a % ([4]; HepG2, 5g24-100, 2 Experiments): 176% | Caspase 3 Normalized Volume as a % ([4]; HepG2, 5g48-50, 2 Experiments): 144% | Caspase 3 Normalized Volume as a % ([4]; HepG2, 5g48-100, 2 Experiments): 95% | Caspase 3 Normalized Volume as a % ([4]; HepG2, 22G24-50, 2 Experiments): 139% | Caspase 3 Normalized Volume as a % ([4]; HepG2, 22G24-100, 2 Experiments): 178% | Caspase 3 Normalized Volume as a % ([4]; HepG2, 22G48-50, 2 Experiments): 150% | Caspase 3 Normalized Volume as a % ([4]; HepG2, 22G48-100, 2 Experiments): 145% | Caspase 3 Normalized Volume ([4]; PACA2, 5g-50, 24 h): 325 | Caspase 3 Normalized Volume ([4]; PACA2, 5g-50, 48 h): 701 | Caspase 3 Normalized Volume ([4]; PACA2, 5g-100, 24 h): 374 | Caspase 3 Normalized Volume ([4]; PACA2, 5g-100, 48 h): 291 | Caspase 3 Normalized Volume ([4]; PACA2, 22G-50, 24 h): 675 | Caspase 3 Normalized Volume ([4]; PACA2, 22G-50, 48 h): 497 | Caspase 3 Normalized Volume ([4]; PACA2, 22G-100, 24 h): 842 | Caspase 3 Normalized Volume ([4]; PACA2, 22G-100, 48 h): 559 | levels of caspase 3 ([4]; cancer cells): increased | expression of Caspase-3 ([4]; normal cells): moderately decreased | level of Bcl2 [5]: decreased level
